Key:
[1] = target: T1, Estrogen receptor beta (Homo sapiens, UniProt Q92731)
Description: Binding affinity to human ERbeta

[2] = target: T2, Estrogen receptor (Homo sapiens, UniProt P03372); format: functional, cell-based, HEK293
T2 sequence (P03372 whole entry): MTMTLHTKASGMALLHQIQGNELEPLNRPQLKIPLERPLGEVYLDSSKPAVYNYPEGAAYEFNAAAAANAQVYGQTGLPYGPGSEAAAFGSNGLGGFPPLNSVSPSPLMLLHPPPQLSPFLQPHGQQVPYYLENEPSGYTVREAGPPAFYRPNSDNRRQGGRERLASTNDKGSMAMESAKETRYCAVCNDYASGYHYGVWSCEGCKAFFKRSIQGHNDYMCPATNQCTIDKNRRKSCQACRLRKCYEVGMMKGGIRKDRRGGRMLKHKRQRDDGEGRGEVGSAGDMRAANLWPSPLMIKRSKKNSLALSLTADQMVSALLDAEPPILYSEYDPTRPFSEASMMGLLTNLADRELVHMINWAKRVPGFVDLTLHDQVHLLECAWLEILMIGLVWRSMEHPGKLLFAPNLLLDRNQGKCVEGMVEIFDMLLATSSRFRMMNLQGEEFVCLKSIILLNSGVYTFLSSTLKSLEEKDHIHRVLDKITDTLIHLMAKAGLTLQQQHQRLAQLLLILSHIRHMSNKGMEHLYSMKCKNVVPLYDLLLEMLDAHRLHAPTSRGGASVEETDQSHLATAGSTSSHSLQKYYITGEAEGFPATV
Description: Effect on transactivation of ALP gene expression in HEK293 cells transfected with hERalpha

[3] = target: T1, Estrogen receptor beta; format: functional, cell-based, HEK293
Description: Effect on transactivation of ALP gene expression in HEK293 cells transfected with hERbeta

[4] = target: T2, Estrogen receptor
Description: Binding affinity to human ERalpha

[5] = target: T3, Androgen receptor (Homo sapiens, UniProt P10275)
T3 sequence (P10275 whole entry): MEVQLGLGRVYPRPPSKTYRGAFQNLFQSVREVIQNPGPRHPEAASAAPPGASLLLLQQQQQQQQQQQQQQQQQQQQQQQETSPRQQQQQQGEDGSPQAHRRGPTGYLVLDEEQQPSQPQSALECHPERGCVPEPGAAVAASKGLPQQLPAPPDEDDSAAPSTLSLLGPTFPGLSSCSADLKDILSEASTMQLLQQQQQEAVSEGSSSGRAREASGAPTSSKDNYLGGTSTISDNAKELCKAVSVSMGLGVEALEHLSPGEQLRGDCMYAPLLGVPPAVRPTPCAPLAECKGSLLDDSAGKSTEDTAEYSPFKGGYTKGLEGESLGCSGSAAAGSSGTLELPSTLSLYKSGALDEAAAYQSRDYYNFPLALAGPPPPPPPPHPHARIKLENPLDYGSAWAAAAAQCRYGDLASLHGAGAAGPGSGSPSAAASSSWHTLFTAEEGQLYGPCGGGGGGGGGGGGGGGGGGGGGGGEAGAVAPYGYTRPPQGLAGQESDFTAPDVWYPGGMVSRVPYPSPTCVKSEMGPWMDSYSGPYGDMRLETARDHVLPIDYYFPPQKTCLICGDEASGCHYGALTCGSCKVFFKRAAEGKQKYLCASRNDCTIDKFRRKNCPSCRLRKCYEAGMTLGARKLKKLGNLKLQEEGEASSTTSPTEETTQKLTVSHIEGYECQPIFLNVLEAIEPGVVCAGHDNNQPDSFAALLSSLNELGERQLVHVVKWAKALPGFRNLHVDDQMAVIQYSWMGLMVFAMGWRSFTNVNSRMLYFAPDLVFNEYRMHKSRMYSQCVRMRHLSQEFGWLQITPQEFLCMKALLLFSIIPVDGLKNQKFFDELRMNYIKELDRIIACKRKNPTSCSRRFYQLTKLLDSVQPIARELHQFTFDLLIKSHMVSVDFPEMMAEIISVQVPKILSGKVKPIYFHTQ
Description: Inhibitory activity against AR

T1 sequence (Q92731 whole entry): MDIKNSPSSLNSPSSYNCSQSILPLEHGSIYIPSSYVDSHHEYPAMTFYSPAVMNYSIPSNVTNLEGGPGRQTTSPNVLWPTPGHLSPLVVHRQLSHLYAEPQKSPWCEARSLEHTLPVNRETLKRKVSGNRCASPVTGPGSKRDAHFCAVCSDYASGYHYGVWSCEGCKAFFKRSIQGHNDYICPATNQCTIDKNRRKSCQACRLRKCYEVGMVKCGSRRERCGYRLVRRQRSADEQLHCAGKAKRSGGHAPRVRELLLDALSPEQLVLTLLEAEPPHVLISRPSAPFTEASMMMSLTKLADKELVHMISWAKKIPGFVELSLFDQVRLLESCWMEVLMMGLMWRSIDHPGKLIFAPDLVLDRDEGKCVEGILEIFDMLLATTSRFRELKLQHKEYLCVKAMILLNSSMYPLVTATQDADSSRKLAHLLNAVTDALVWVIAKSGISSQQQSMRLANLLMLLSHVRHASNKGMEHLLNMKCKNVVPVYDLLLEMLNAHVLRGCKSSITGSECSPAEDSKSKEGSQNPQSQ

Row | Compound | IC50 [1] | EC50 [2] | EC50 [3] | IC50 [4] | IC50 [5]
1 | C#CC[C@]12CC[C@H](O)CC1=CCC1C2CC[C@@]2(C)C1CC[C@@H]2O (stereo partly specified) | 286 nM | 984 nM | 153 nM | 4640 nM | 1720 nM
2 | C[C@]12CCC3C(CC=C4C[C@@H](O)CC[C@@]43/C=C/Cl)C1CC[C@@H]2O (stereo partly specified) | 122 nM | 603 nM | 68 nM | 5600 nM | 1440 nM
3 | CCC[C@]12CC[C@H](O)CC1=CCC1C2CC[C@@]2(C)C1CC[C@@H]2O (stereo partly specified) | 132 nM |  |  | 5160 nM | 1770 nM
4 | C=C[C@]12CCC(=O)C=C1CCC1C2CC[C@@]2(C)C1CC[C@@H]2O (stereo partly specified) | 782 nM | > 1000 nM | 379 nM | > 10000 nM | 7.9 nM
5 | C/C=C/[C@]12CC[C@H](O)CC1=CCC1C2CC[C@@]2(C)C1CC[C@@H]2O (stereo partly specified) | 96 nM | 47 nM | 39 nM | 1160 nM | 843 nM
6 | C=C[C@]12CC[C@H](O)CC1=CCC1C2CC[C@@]2(C)C1CC[C@]2(C)O (stereo partly specified) | 25 nM | 494 nM | 31 nM | 1050 nM | 169 nM
7 | C=C[C@]12CC[C@H](O)CC1=CCC1C2CC[C@@]2(C)C1CC[C@@H]2O (stereo partly specified) | 11 nM | 982 nM | 4.1 nM | 2240 nM | 33 nM
8 | C[C@]12CCC3C(CC=C4C[C@@H](O)CC[C@@]43/C=C\F)C1CC[C@@H]2O (stereo partly specified) | 25 nM | 622 nM | 3.8 nM | 4280 nM | 11 nM
9 | CC[C@]12CC[C@H](O)CC1=CCC1C2CC[C@@]2(C)C1CC[C@@H]2O (stereo partly specified) | 16 nM |  |  | 2330 nM | 33 nM
10 | C=CC[C@]12CC[C@H](O)CC1=CCC1C2CC[C@@]2(C)C1CC[C@@H]2O (stereo partly specified) | 128 nM | 1000 nM | 148 nM | 1740 nM | 1770 nM
11 | C[C@]12CCC3C(CC=C4C[C@@H](O)CC[C@@]43/C=C\Br)C1CC[C@@H]2O (stereo partly specified) | 212 nM | > 1000 nM | 96 nM | > 10000 nM | 20 nM
12 | CO/C=C\[C@]12CC[C@H](O)CC1=CCC1C2CC[C@@]2(C)C1CC[C@@H]2O (stereo partly specified) | 303 nM | 3240 nM | 188 nM | 3350 nM | 1400 nM
13 | C[C@]12CCC3C(CC=C4C[C@@H](O)CC[C@@]43/C=C/Br)C1CC[C@@H]2O (stereo partly specified) | 210 nM | > 1000 nM | 67 nM | 3980 nM | 120 nM
14 | C[C@]12CC[C@H]3[C@@H](CCC4=CC(=O)CC[C@@]43C)[C@@H]1CC[C@@H]2O [TESTOSTERONE] | > 10000 nM |  |  |  | 
15 | C[C@]12CCC3C(CC=C4C[C@@H](O)CC[C@@]43CC=O)C1CC[C@@H]2O (stereo partly specified) | 1620 nM | > 1000 nM | > 1000 nM | > 1000 nM | > 5000 nM
16 | CO/C=C/[C@]12CC[C@H](O)CC1=CCC1C2CC[C@@]2(C)C1CC[C@@H]2O (stereo partly specified) | 1300 nM | 583 nM | 827 nM | > 10000 nM | 4620 nM
17 | C[C@]12CCC3C(CC=C4C[C@@H](O)CC[C@@]43/C=C/F)C1CC[C@@H]2O (stereo partly specified) | 22 nM | 324 nM | 8.7 nM | 4160 nM | 85 nM
18 | C#CC12CC[C@H](O)CC1=CCC1C2CC[C@@]2(C)C1CC[C@@H]2O (single isomer, unassigned) | 17 nM | 160 nM | 8 nM | 425 nM | 1760 nM
19 | C[C@]12CCC3C(CC=C4C[C@@H](O)CC[C@@]43CO)C1CC[C@@H]2O (stereo partly specified) | 1750 nM | > 1000 nM | > 641 nM | 6320 nM | > 5000 nM
20 | CC/C=C\[C@]12CC[C@H](O)CC1=CCC1C2CC[C@@]2(C)C1CC[C@@H]2O (stereo partly specified) | 361 nM | 719 nM | 252 nM | 3040 nM | 3770 nM
21 | C/C=C\[C@]12CC[C@H](O)CC1=CCC1C2CC[C@@]2(C)C1CC[C@@H]2O (stereo partly specified) | 16 nM | 344 nM | 21 nM | 1960 nM | 
22 | C#CC1(O)CCC2C3CC=C4C[C@@H](O)CC[C@]4(C=C)C3CC[C@@]21C (single isomer, unassigned) | 14 nM | 10 nM | 24 nM | 147 nM | 287 nM
23 | C[C@]12CCC3C(CC=C4C[C@@H](O)CC[C@@]43C=O)C1CC[C@@H]2O (stereo partly specified) | 230 nM | 844 nM | 78 nM | > 10000 nM | > 5000 nM
24 | C[C@]12CCC3C(CC=C4C[C@@H](O)CC[C@@]43/C=C\Cl)C1CC[C@@H]2O (stereo partly specified) | 83 nM | > 1000 nM | 91 nM | 6690 nM | 172 nM
25 | CC#C[C@]12CC[C@H](O)CC1=CCC1C2CC[C@@]2(C)C1CC[C@@H]2O (stereo partly specified) | 381 nM | 1000 nM | 171 nM | > 8420 nM | 3730 nM
